The results in this text go back to patent publication US4705805A, “Antithrombotic agent” (priority 1978, dated 1987).

≈ marks a conversion by molar mass, not a printed value. Read-outs that look alike come from different tables or passages of the source.

Series [1] relates to mice (male dd-strain), death by sodium arachidonate. The experiment in a line: prevention of death of mice by sodium arachidonate. To be noted: sodium arachidonate 50 mg/Kg i.v. two hours thereafter. Format: in vivo. The procedure: When a large amount of arachidonic acid is intravenously administrated to a mouse, blood platelet aggregates are formed and caught by the microvasculature system of the lung. As a result, the mouse expires due to dyspnea.
To examine the effect of a medicine in vivo, the medicine is orally administered to test animals and thereafter arachidonic acid is administered.
In this example, the test was carried out according to the method by Uzunova A. D. et al. [Prostaglandins 13, p. 995 (1977)] Specifically, a CMC suspension consisting of 0.3% CMC solution and a medicine (test compound and reference medicine) was orally administered to mice (male dd-strain, 22-24 g). Two hours thereafter, 50 mg/Kg of sodium arachidonate was intravenously administered to the mice.

Series [2] has as its system rabbit blood platelets (platelet rich plasma), collagen-induced aggregation. The experiment in a line: inhibition of platelet aggregation in rabbit platelet rich plasma (in vitro), induced by collagen. Format: cell-based. To be noted: Oryctolagus cuniculus, Platelet; for inhibition at 1 µg/mL: 1 μg/ml; for inhibition at 3 µg/mL: 3 μg/ml; for inhibition at 10 µg/mL: 10 μg/ml. The procedure, abridged:
(§1)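 PRP from citrated rabbit carotid blood (1,000 rpm, 15 min) preincubated 1 min with test compound in saline before ADP or collagen is added. Aggregation followed by light transmission in an aggregometer; % inhibition derived from maximum aggregation with sample versus saline.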

The subject of series [3] is rabbit blood platelets (platelet rich plasma), ADP-induced aggregation. Briefly: inhibition of platelet aggregation in rabbit platelet rich plasma (in vitro), induced by ADP. Format: cell-based. To be noted: Oryctolagus cuniculus, Platelet; for IC50 / inhibition at 1 µg/mL / inhibition at 3 µg/mL / inhibition at 10 µg/mL / inhibition at 30 µg/mL: rabbit PRP, ADP 10^-5 M; for inhibition at 1 µg/mL: 1 μg/ml; for inhibition at 3 µg/mL: 3 μg/ml; for inhibition at 10 µg/mL: 10 μg/ml; for inhibition at 30 µg/mL: 30 μg/ml. The procedure, abridged: as §1

Series [4] has as its system mouse (male dd-strain). The experiment in a line: acute toxicity, Behrens-Karber's method. The class given is in vivo. The conditions noted are these: oral. The procedure:
(§2) In this example, the acute toxicity of compounds of the invention is determined by Behrens-Karber's method using, 5 male dd-strain for each group weighing 20±1 g. A 0.3% CMC suspension of the test compound (concentration of the test compound: 100 mg/ml) is then orally administered to each mouse.

A short description of series [5]: acute toxicity, Behrens-Karber's method. To be noted: in vivo; mouse, oral. The class given is in vivo. The procedure: as §2
Series [6] concerns rabbit blood platelets (platelet rich plasma), thrombin-induced aggregation. Briefly: inhibition of platelet aggregation in rabbit platelet rich plasma (in vitro), induced by thrombin. Format: cell-based. The conditions noted are these: Oryctolagus cuniculus, read-out: percentage of inhibition, thrombin. The procedure: In this example, the inhibition of platelet aggregation in rabbit platelet rich plasma (in vitro) is tested.
The thus obtained blood is centrifuged at 1,000 rpm for 15 minutes to obtain platelet rich plasma (referred to as "PRP" hereinafter). The aggregation of blood platelets is observed using an aggregometer (made by Bryston Co.) and the degree of aggregation after the addition of aggregation promoting substances is measured by nephelometry, i.e., through increase in light transmission.
(§3) The PRP (0.9 ml) is placed in a silicon-coated cuvett of the aggregometer. Then, 0.05 ml of physiological saline solution containing various concentrations of test reagents or control reagents is added and the mixture is allowed to stand for one minute. Compounds promoting aggregation are then added and the absorbancy of the solution is measured and the percent inhibition of aggregation is calculated according to the following equation: [formula] C: Transmittancy showing the maximum percent aggregation by physiological saline solution
(§4) D: Transmittancy showing the maximum percent aggregation by sample
Test for the inhibition of platelet aggregation induced by ADP, collagen and thrombin.

Series [7] relates to human platelet rich plasma, collagen-induced aggregation. Briefly: inhibition of platelet aggregation in human platelet rich plasma, induced by collagen. The class given is cell-based. The conditions noted are these: read-out: percentage inhibition, collagen; for inhibition at 10 µg/mL: 10 μg/ml. The protocol: (§5) In this test, 9 vol. of blood is sampled from the carotid artery of rabbits (2 to 2.5 Kg) and placed in a silicon-coated flask containing 1 vol. of 3.8% sodium citrate. The thus obtained blood is centrifuged at 1,000 rpm for 15 minutes to obtain platelet rich plasma (referred to as "PRP" hereinafter). The aggregation of blood platelets is observed using an aggregometer (made by Bryston Co.) and the degree of aggregation after the addition of aggregation promoting substances is measured by nephelometry, i.e., through increase in light transmission.
as §3, §4
(§6) In this example, the same procedures are repeated as in Example 10 except that human platelet rich plasma is used in place of rabbit platelet rich plasma.

Series [8] has as its system human platelet rich plasma, ADP-induced aggregation. Briefly: inhibition of platelet aggregation in human platelet rich plasma, induced by ADP. Format: cell-based. To be noted: read-out: percentage inhibition, ADP; for inhibition at 10 µg/mL: 10 μg/ml. The protocol:
as §5, §3, §4, §6

A short description of series [9]: solubility. The class given is physicochemical.
Series [10] relates to mice, death by ADP injection. Briefly: prevention of death of mice by ADP addition (in vivo), oral administration. To be noted: for Mortality / Score (mortality): oral, 100 mg/Kg, ADP i.v. after one hour. The protocol: (§7) In this example, prevention of death of mice by ADP addition (in vivo) is tested. It is shown that intravenous administration of a great amount of ADP to mice causes aggregated blood platelets to be captured in the pulmonary capillaries so that the mice die of respiratory distress.
The test is carried out according to Roba's method. [Eur. J. Pharmacol. 37, 265-274 (1976)]. Specifically, CMC solution (0.3%) and CMC suspension containing the test compound and control compounds are orally administered to mice in a ratio of 0.1 ml/10 g (body weight). After one hour, an aqueous solution of ADP (60 mg/ml) is injected into the tail vein in a volume of 0.1 ml/10 g (body weight) every 10 seconds and the mortality is calculated.

For series [11], the system named is mice, death by ADP injection. Briefly: prevention of death of mice by ADP addition (in vivo), intravenous administration. To be noted: 10 mg/Kg, ADP-Na ten minutes thereafter. The protocol: as §7
In order to check the effect by intravenous administration, physiological saline solution and physiological saline solution containing the test reagents (0.5 mg/ml) is injected into the tail vein in a volume of 0.2 ml/10 g (body weight). Ten minutes thereafter (10 mg/kg) ADP-Na is injected into the tail vein as in the oral test, and the mortality is calculated.

The mark [12] stands for this setting: rabbit PRP, read-out: percentage of inhibition, collagen.
Where [13] appears, read: read-out: percentage of inhibition, ADP.
Setting [14] is: read-out: percentage of inhibition, collagen.

With `CC(O)CNC(=O)c1ccccc1SSc1ccccc1C(=O)NCC(C)O` (stereo not shown) [Compound V, 2,2'-dithiobis(N-2-hydroxypropylbenzamide)], the Mortality in series [1] (oral 25 mg/Kg) is reported as 40%; in series [1] (oral 50 mg/Kg) it was 20%; in series [1] (oral 100 mg/Kg) it was 20%. Further, the results for the “Score (mortality)” value in series [1] (oral 25 mg/Kg), in series [1] (oral 50 mg/Kg) and in [1] (oral 100 mg/Kg) were 8/20, 4/20 and 4/20, respectively. In addition, the inhibition (usually the drop in the measured response relative to a control, in per cent) at 1 µg/mL in series [2] (setting [12]) came to 25.7%; in series [3] (setting [13]), 12.5%; in series [6] (rabbit PRP, 1 μg/ml), 10%. Further, the inhibition at 3 µg/mL in series [2] (setting [12]) came to 83.5%; in series [3] (setting [13]) it was 25.5%; in series [6] (rabbit PRP, 3 μg/ml), 57%; in series [7] (human PRP, 3 μg/ml), 13%; in series [8] (human PRP, 3 μg/ml) it was 47%. Further, the inhibition at 10 µg/mL in series [2] (setting [12]) stood at 100%; in series [3] (setting [13]), 54%; in series [6] (rabbit PRP, 10 μg/ml), 89.6%; in series [7] (human PRP), 39%; in series [8] (human PRP) it was 61%. For the same compound, the IC50 (in general, the point on the concentration scale where inhibition reaches its midpoint) in [3] was 7.4 µg/mL (≈ 17.6 µM). In addition, the inhibition at 30 µg/mL in series [3] (setting [13]) is 90%; in series [6] (rabbit PRP, 30 μg/ml), 95%; in [7] (human PRP, 30 μg/ml) it was 100%; in series [8] (human PRP, 30 μg/ml), 81%. In addition, the mortality rate was 0/5 in series [4] (2 g/Kg), 2/5 in series [4] (3 g/Kg) and 4/5 in [4] (4 g/Kg). For the same compound, in [5], the LD50 (usually the dose at which mortality reaches 50%) is no less than 3000 mg/kg.

Turning to `O=C(NCO)c1ccccc1SSc1ccccc1C(=O)NCO` [Compound XV, 2,2'-dithiobis(N-hydroxymethylbenzamide)], in series [2] (setting [12]), the inhibition at 3 µg/mL was found to be 22%. The inhibition at 10 µg/mL in [2] (setting [12]) is 56%; in [3] (setting [13]) it was 0%; in series [7] (human PRP) it was 29%; in [8] (human PRP), 5%. For the same compound, the inhibition at 30 µg/mL was 100% in [2] (rabbit PRP, 30 μg/ml, read-out: percentage of inhibition, collagen); 46% in series [3] (setting [13]); 68% in series [7] (human PRP, 30 μg/ml); 45% in series [8] (human PRP, 30 μg/ml). In addition, the “Solubility in DMSO, DMF” value in [9] (DMSO, DMF, etc.) was “Soluble”. Besides, the “Solubility in ethanol, water” value in series [9] (ethanol, water, and the like) is reported as “poorly soluble”. The “Solubility in ether, benzene, chloroform” value in series [9] (ether, benzene, chloroform, and the like) is recorded as “Insoluble”. The inhibition at 100 µg/mL amounted to 100% in series [7] (human PRP, 100 μg/ml) and 90% in series [8] (human PRP, 100 μg/ml).

`CC(=O)Oc1ccccc1C(=O)O` [Aspirin, reference compound]: the Mortality is 50% in series [1] (oral 12.5 mg/Kg), 10% in series [1] (oral 25 mg/Kg), 80% in series [10] and 70% in series [11]. Besides, the “Score (mortality)” value in [1] (oral 12.5 mg/Kg) is given as 5/10; in series [1] (oral 25 mg/Kg), 1/10; in series [10], 8/10; in [11], 7/10. The inhibition at 30 µg/mL in series [2] (setting [14]) worked out at 20%; in [6], 21%; in series [7] (Homo sapiens), 48%; in series [8] (Homo sapiens), 7%. Also, the inhibition at 100 µg/mL in series [2] (setting [14]) worked out at 34%; in series [6] it was 65%; in series [7] (Homo sapiens), 86%; in series [8] (Homo sapiens), 20%. Also, the inhibition at 300 µg/mL in [2] (setting [14]) was 48%; in series [3] (setting [13]), 0%. Besides, the “effect in reducing mortality (ADP)” value in series [10] (in words, oral or intravenous administration, Table 3) is given as “ineffective”.

For `O=C(NCCO)c1ccccc1SSc1ccccc1C(=O)NCCO` [Compound III, 2,2'-dithiobis(N-2-hydroxyethylbenzamide)], the Mortality is recorded as 70% in [1] (oral 50 mg/Kg), 40% in [1] (oral 100 mg/Kg) and 20% in series [10]. Moreover, the “Score (mortality)” value is given as 7/10 in series [1] (oral 50 mg/Kg), 4/20 in series [1] (oral 100 mg/Kg) and 2/10 in series [10]. Moreover, the IC50 was 1.1 µg/mL (≈ 2.8 µM) in [2] (rabbit PRP) and 4.8 µg/mL (≈ 12.2 µM) in series [3]. The inhibition at 0.3 µg/mL in series [2] (rabbit PRP, 0.3 μg/ml, read-out: percentage of inhibition, collagen) was found to be 11%. Besides, the inhibition at 1 µg/mL came out at 39.2% in series [2] (setting [12]) and 21.3% in series [3] (setting [13]). In addition, the results for the inhibition at 3 µg/mL in series [2] (setting [12]) and in series [3] (setting [13]) were 88.5% and 33.4%, respectively. Besides, the inhibition at 10 µg/mL in [2] (setting [12]) is 100%; in series [3] (setting [13]) it was 69.1%; in [7] (human PRP), 20%; in series [8] (human PRP), 15%. For the same compound, the inhibition at 30 µg/mL in [3] (setting [13]) was determined as 100%; in [7] (human PRP, 30 μg/ml), 66%; in series [8] (human PRP, 30 μg/ml) it was 43%. The mortality rate is recorded as 0/5 in [4] (1 g/Kg), 1/5 in series [4] (2 g/Kg), 4/5 in series [4] (3 g/Kg) and 4/5 in series [4] (4 g/Kg). Moreover, the LD50 in [5] is no less than 2000 mg/kg. For the same compound, the inhibition at 100 µg/mL in series [7] (human PRP, 100 μg/ml) was determined as 100%; in series [8] (human PRP, 100 μg/ml) it was 98%.
